Test results as given in ChEMBL document CHEMBL1129344, “Chemical synthesis of benzamide adenine dinucleotide: inhibition of inosine monophosphate dehydrogenase (types I and II)” (J Med Chem, 1996).

What was measured:
Homo sapiens [1] = species on record: Homo sapiens; assay: Compound was evaluated for inhibitory concentration of inosine monophosphate dehydrogenase; format: functional, organism-based
Homo sapiens [2] = species on record: Homo sapiens; assay: Compound was evaluated for inhibitory concentration potent against IMPDH type-II; format: functional, organism-based
Homo sapiens [3] = species on record: Homo sapiens; assay: Compound was evaluated for inhibitory concentration potent against IMPDH type-I; format: functional, organism-based
Homo sapiens [4] = species on record: Homo sapiens; assay: Binding affinity towards less potent effect against alcohol dehydrogenase (ADH); format: functional
Homo sapiens [5] = species on record: Homo sapiens; assay: Compound was evaluated for inhibition of inosine monophosphate dehydrogenase type-I; format: functional, organism-based
Homo sapiens [6] = species on record: Homo sapiens; assay: Compound was evaluated for binding affinity by enzymatically to inhibit IMPDH; format: functional
Homo sapiens [7] = species on record: Homo sapiens; assay: Compound was evaluated for inhibition of inosine monophosphate dehydrogenase type-II; format: functional, organism-based

## NC(=O)c1cncc([C@@H]2O[C@H](CO)[C@@H](O)[C@H]2O)c1
Homo sapiens [1]
  IC50: 7000 nM

## NC(=O)c1csc([C@@H]2O[C@H](CO)[C@@H](O)[C@H]2O)n1 [TIAZOFURIN]
Homo sapiens [2]
  IC50: 101 nM
Homo sapiens [3]
  IC50: 94 nM

## NC(=O)c1cccc([C@@H]2O[C@H](CO)[C@@H](O)[C@H]2O)n1
Homo sapiens [4]
  Ki: 20 nM
Homo sapiens [1]
  IC50: 26000 nM

## NC(=O)c1cccc([C@@H]2O[C@H](CO)[C@@H](O)[C@H]2O)c1
Homo sapiens [5]
  IC50: 780 nM
Homo sapiens [6]
  Ki: 118 nM
Homo sapiens [7]
  IC50: 880 nM
